From US8506950B2, “Degradable microcapsules” (ETH Zurich, priority 2008, dated 2013)

System: PhCMV*-1 and PETR driven SecCell expression
Assay: Transient expression of SecCell under antibiotic-responsive promoters in mammalian cells
Format: cell-based, human, hamster
Details: HEK293-T, HeLa, HT-1080, CHO-K1, BHK-21, transient transfection
Source text: (B) Transient expression of cellulase in HEK293-T, HeLa, HT-1080, BHK-21 and CHO-K1 cells. Cellulase was either driven by a constitutive (PhCMV) or antibiotic-responsive promoters (PhCMV*-1 and PETR).
The Bacillus subtilis endo (1-4)-beta-glucanase was PCR-amplified from genomic DNA and fused to a strong mammalian secretion signal sequence derived from the murine Igk-chain V-12-C region. The secreted cellulase (SecCell) was cloned downstream of a constitutive promoter (PhCMV) as well as two different inducible promoters which enabled doxycycline-(PhCMV*-1) and erythromycin-(PETR) adjustable transgene expression (FIG. 1A).
Cellulase was quantified using EnzCheck® fluorescent substrate (Molecular Probes, Eugene, Oreg., USA) according to the manufacturer's protocol: 20 μl of cell culture supernatant was centrifuged at 16,000×g for one minute to remove cell debris and 15 μl of appropriate dilutions in PBS (Invitrogen, cat. no. 21600-069) were transferred to a 384-well plate containing 15 μl sodium acetate buffer (200 mM sodium acetate, pH 5.5) per well supplemented with 3 μl substrate solution. Plates were incubated at 37° C. for 30 minutes and fluorescence intensity was measured subsequently at 340 nm (excitation wavelength) and 450 nm (emission wavelength) in a Genios Pro multiwell plate reader (Tecan A G, Maennedorf, Switzerland). […]

## CC[C@H]1OC(=O)[C@H](C)[C@@H](O[C@H]2C[C@@](C)(OC)[C@@H](O)[C@H](C)O2)[C@H](C)[C@@H](O[C@@H]2O[C@H](C)C[C@H](N(C)C)[C@H]2O)[C@](C)(O)C[C@@H](C)C(=O)[C@H](C)[C@@H](O)[C@]1(C)O [EM, erythromycin]
  SecCell production (cellulase activity in the culture supernatants): repressed
